Calls of active or inactive are those of the source. No stated cut-off is given here; in the data, actives have a measured IC50 and inactives only a lower limit.
Target: Envelope glycoprotein gp160 (Human immunodeficiency virus 1, UniProt Q6QLK5)
Assay: cell-free HIV fusion peptide-binding blockers – biochemical, uHTS, fluorescence dequenching, […] (AID 1986)

Chain of Envelope glycoprotein gp160 (Q6QLK5 whole entry, the tested form may be a part): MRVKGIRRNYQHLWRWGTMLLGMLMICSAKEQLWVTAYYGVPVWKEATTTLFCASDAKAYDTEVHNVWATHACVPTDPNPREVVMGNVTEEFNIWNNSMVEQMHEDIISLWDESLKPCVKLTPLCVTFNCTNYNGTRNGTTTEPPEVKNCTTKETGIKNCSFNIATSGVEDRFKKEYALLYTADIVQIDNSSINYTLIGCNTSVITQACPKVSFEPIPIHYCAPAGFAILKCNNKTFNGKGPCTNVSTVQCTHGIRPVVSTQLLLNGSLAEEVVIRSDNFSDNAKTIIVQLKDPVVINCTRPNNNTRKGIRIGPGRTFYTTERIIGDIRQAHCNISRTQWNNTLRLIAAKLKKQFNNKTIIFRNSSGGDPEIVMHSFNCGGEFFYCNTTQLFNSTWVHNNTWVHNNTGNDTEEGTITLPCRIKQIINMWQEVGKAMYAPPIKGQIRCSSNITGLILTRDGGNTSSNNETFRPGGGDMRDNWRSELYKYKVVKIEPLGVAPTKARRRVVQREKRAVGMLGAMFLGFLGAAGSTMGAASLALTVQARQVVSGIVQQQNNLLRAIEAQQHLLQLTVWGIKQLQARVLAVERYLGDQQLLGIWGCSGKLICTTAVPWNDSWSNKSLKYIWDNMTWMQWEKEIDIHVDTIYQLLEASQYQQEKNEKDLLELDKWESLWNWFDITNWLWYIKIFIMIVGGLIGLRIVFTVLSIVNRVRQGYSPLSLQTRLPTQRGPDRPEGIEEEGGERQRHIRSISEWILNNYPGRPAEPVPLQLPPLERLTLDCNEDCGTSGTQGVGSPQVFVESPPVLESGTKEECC

**Q.** CC(C)(C)OC(=O)N1CCC(c2cc(O)n3ncc(C(=O)Nc4ccc(F)c(Cl)c4)c3n2)CC1 was tested. Which IC50 did it give?
**A.** 82.2 µM (active)

**Q.** For O=C1N/C(=N\c2ccccc2Cl)S/C1=C\c1cccc([N+](=O)[O-])c1O, which IC50 is on record?
**A.** 22.1 µM (active)

**Q.** For Nc1c(S(=O)(=O)O)cc(NC(=O)c2ccccc2)c2c1C(=O)c1ccccc1C2=O, which IC50 is on record?
**A.** 12.1 µM (active)

**Q.** For CCOc1cc(Br)cc(C(c2c(C(=O)O)[nH]c3ccccc23)c2c(C(=O)O)[nH]c3ccccc23)c1O, which IC50 is on record?
**A.** 5.92 µM (active)

**Q.** Which IC50 does the source give for Cc1ccc(-c2nn(-c3ccccc3)cc2/C=C2\SC(=S)N(CC(=O)O)C2=O)cc1 here?
**A.** 12.3 µM (active)
